Consider four compounds from patent US9896718B2, “Herbicide tolerant cotton event pDAB4468.18.07.1” (Dow AgroSciences LLC, priority 2012, dated 2018).

The structures appear in SMILES notation. Read-outs that look alike come from different tables or passages of the source.

Data set [1] relates to cotton event pDAB4468.18.07.1. The data set is described as follows: Agronomic characterization in field trials with and without herbicide application. Conditions: standard field application rates, 2010 field trials. It counts as in vivo, Gossypium hirsutum. An excerpt: The agronomic characteristics of cotton event pDAB4468.18.07.1 were quantified in field trials conducted across geographically different locations throughout the cotton belt in 2010. These studies compared the agronomic performance of cotton event pDAB4468.18.07.1 (with and without applications of the herbicides 2,4-D and glufosinate) to the non-transgenic near-isoline control, Coker 310. No agronomically meaningful unintended differences were observed between cotton event pDAB4468.18.07.1 and the Coker 310 control plants. […] Additionally, the agronomic performance of cotton event pDAB4468.18.07.1 was not altered as a result of the application of the herbicides, 2,4-D and glufosinate, as compared to the cotton event pDAB4468.18.07.1 plants which were not sprayed with the herbicide treatments. […]
Seeds of cotton event pDAB4468.18.07.1 and seeds of the near-isoline control line, Coker 310, were planted at a rate of 80 seeds per 20 ft row with a row spacing of 34-38 inches (86.36 cm-96.52 cm). […] The measured agronomic characteristics were equivalent for cotton event pDAB4468.18.07.1 as compared to the Coker 310 near-isoline control plants for all of the agronomic characteristics measured and statistically analyzed. […]

Data set [2] deals with cotton event pDAB4468.18.07.1. Briefly: Tolerance to glufosinate in field trials (percent visual injury after postemergence application). Conditions: for Percent visual injury: postemergence, 6-8 leaf cotton, field. It counts as in vivo, Gossypium hirsutum. The procedure:
Glufosinate tolerance was measured by assessing cotton plants for injury at 2-4 days after application (DAA), 7-9 DAA, 13-19 DAA and 22-29 DAA. […] The ratings were a composite score for any herbicide symptomology including chlorosis, leaf necrosis, stunting and plant death. Herbicide symptomology (where present) was primarily chlorosis and necrosis.
(§1) Field trials were conducted at eleven locations across the United States in typical cotton producing areas of Alabama, Arkansas, California, Georgia, Louisiana, Mississippi, North Carolina, South Carolina, and Tennessee. Trials were designed with four replications per treatment. Each replication was separated by a bare-soil alley 10-15 feet wide. Plot size for individual treatments was 2 rows by 20 feet long with rows typically spaced 36-40 inches apart. Experimental treatments consisted of cotton event pDAB4468.18.07.1 sprayed with glufosinate ammonium (Ignite 280 SL™, Bayer, Research Triangle, N.C.) at either 0, 542, 1084, or 2168 grams acid equivalent per hectare (g ae/ha) applied in 15 gallons per acre of final spray solution. A non-transformed cotton comparator treatment was not included in these experiments since treatment with glufosinate at rates much lower than the lowest rate tested (542 g ae/ha) would be expected to result in plant death.

Data set [3] relates to cotton event pDAB4468.18.07.1. Briefly: Tolerance to 2,4-D in field trials (percent visual injury after postemergence application). It counts as in vivo, Gossypium hirsutum. Particulars: for Percent visual injury: postemergence, 2-4 leaf cotton, field. The procedure: The application of 2,4-D on cotton plants at this stage of development represents a herbicide application timing typically utilized to achieve satisfactory weed control by cotton growers.
2,4-D tolerance was measured by assessing cotton plants for injury at 0-1 day after application (DAA), 7-8 DAA, 12-16 DAA, and 24-32 DAA. Measurements for the 0-1 day time increment were taken from 6-24 hours after the application. […] The ratings were a composite score for any herbicide symptomology including epinasty, chlorosis, leaf necrosis and plant death. Herbicide symptomology present at 0-1 DAA was primarily epinasty and symptoms at later evaluations were primarily chlorosis and necrosis.
as §1, with “2,4-D amine (Weedar 64™, NuFarm, Burr Ridge, Ill.)” for “glufosinate ammonium (Ignite 280 SL™, Bayer, Research Triangle, N.C.)”, “1120, 2240,” for “542, 1084,”, “4480” for “2168”, “2,4-D” for “glufosinate”, “(1120” for “(542”, “are known” for “would be expected”

For a further data set, the system named is non-transformed cotton. Particulars: rates much lower than the lowest rate tested (1120 g ae/ha); known; cited from earlier work.
Data set [4] deals with cotton event pDAB4468.18.07.1. Conditions: for % Injury: cotton event pDAB4468.18.07.1, 3 leaf stage. Here is the method: The tolerance of cotton event pDAB4468.18.07.1 to postemergence applications of the pyridyloxyacetic acid herbicides, triclopyr and fluroxypyr, was studied in greenhouse trials. Herbicide tolerance was assessed following a single postemergence application of triclopyr or fluroxypyr.
Seeds from cotton event pDAB4468.18.07.1 were heat treated in a water bath at 82.5° C. for 1 minute and then planted in metro mix 360 media and grown in a greenhouse. The temperatures in the greenhouse averaged 27° C. and the photoperiod was set at 16 hours of light and eight hours of dark, with maximum light intensity. Plants were allowed to grow until the 3 leaf stage of development and a non-randomized study was conducted with three replications and three treatments for each herbicide. Plants were sprayed in a track sprayer calibrated to deliver 187 L/ha of the commercial formulations of triclopyr (Garton 4™, Dow AgroSciences, Indianapolis, Ind.) and fluroxypyr (Starane™, Dow AgroSciences, Indianapolis, Ind.). A non-transformed Coker 310 variety of cotton was used as a negative control. Visual injury assessment was taken 3 DAA (days after application) and 11 DAA comparing each rate of herbicide. Injury was assessed visually as percentage of epinastic cotton-plant foliage using a linear percentage scale […] where 0% represents no visible herbicide injury and 100% represents plant death.

For data set [5], the system named is non-transformed Coker 310 variety of cotton. Briefly: Tolerance to triclopyr and fluroxypyr in greenhouse trials (percent visual injury), negative control plants. It counts as in vivo. Particulars: 3 leaf stage.
Experimental: Seeds from cotton event pDAB4468.18.07.1 were heat treated in a water bath at 82.5° C. for 1 minute and then planted in metro mix 360 media and grown in a greenhouse. The temperatures in the greenhouse averaged 27° C. and the photoperiod was set at 16 hours of light and eight hours of dark, with maximum light intensity. Plants were allowed to grow until the 3 leaf stage of development and a non-randomized study was conducted with three replications and three treatments for each herbicide. Plants were sprayed in a track sprayer calibrated to deliver 187 L/ha of the commercial formulations of triclopyr (Garton 4™, Dow AgroSciences, Indianapolis, Ind.) and fluroxypyr (Starane™, Dow AgroSciences, Indianapolis, Ind.). A non-transformed Coker 310 variety of cotton was used as a negative control. Visual injury assessment was taken 3 DAA (days after application) and 11 DAA comparing each rate of herbicide. Injury was assessed visually as percentage of epinastic cotton-plant foliage using a linear percentage scale (1-100%) where 0% represents no visible herbicide injury and 100% represents plant death.

Turning to `CP(=O)(O)CCC(N)C(=O)O` (stereo not shown) [glufosinate], the “agronomic performance of cotton event after herbicide application vs unsprayed plants” value in data set [1] is “not altered”. The “herbicide injury noted in the experiments” value in data set [2] (542-2168 g ae/ha, with the exception of transient chlorosis at 2168 g ae/ha at 2-4 & 7-9 DAA) is reported as “no agronomically-significant herbicide injury”. The Percent visual injury was found to be 3.1% in data set [2] (542 g ae/ha, 2-4 DAA); 2.3% in data set [2] (542 g ae/ha, 7-9 DAA); 0.1% in data set [2] (542 g ae/ha, 13-19 DAA); 0.1% in data set [2] (542 g ae/ha, 22-29 DAA); 7.6% in data set [2] (1084 g ae/ha, 2-4 DAA); 4.8% in data set [2] (1084 g ae/ha, 7-9 DAA). For the same compound, the Percent visual injury in data set [2] (1084 g ae/ha, 13-19 DAA) is listed as 0.1%; in data set [2] (1084 g ae/ha, 22-29 DAA) it was 0.0%; in data set [2] (2168 g ae/ha, 2-4 DAA), 14.8%; in data set [2] (2168 g ae/ha, 7-9 DAA) it was 10.8%; in data set [2] (2168 g ae/ha, 13-19 DAA) it was 2.2%; in data set [2] (2168 g ae/ha, 22-29 DAA) it was 0.3%. Further, the “crop injury beyond the 7-9 DAA evaluation interval” value in data set [2] (2168 g ae/ha (>4× rate required for broad spectrum weed control)) is “little crop injury”.
With `CNC.O=C(O)COc1ccc(Cl)cc1Cl` [2,4-D], the “herbicide injury noted in the experiments” value in data set [3] (1120-4480 g ae/ha, with the exception of transient epinasty 0-1 DAA) was “no agronomically-significant herbicide injury”. Further, the Percent visual injury in data set [3] (1120 g ae/ha, 0-1 DAA) is 5.0%; in data set [3] (1120 g ae/ha, 7-8 DAA), 2.3%; in data set [3] (1120 g ae/ha, 12-16 DAA), 1.1%; in data set [3] (1120 g ae/ha, 24-32 DAA), 0.0%; in data set [3] (2240 g ae/ha, 0-1 DAA), 11.7%; in data set [3] (2240 g ae/ha, 7-8 DAA), 4.9%. Moreover, the Percent visual injury is 2.7% in data set [3] (2240 g ae/ha, 12-16 DAA); 0.4% in data set [3] (2240 g ae/ha, 24-32 DAA); 21.0% in data set [3] (4480 g ae/ha, 0-1 DAA); 15.1% in data set [3] (4480 g ae/ha, 7-8 DAA); 8.0% in data set [3] (4480 g ae/ha, 12-16 DAA); 2.2% in data set [3] (4480 g ae/ha, 24-32 DAA). For the same compound, the “crop injury beyond the 7-8 DAA evaluation interval” value in data set [3] (4480 g ae/ha (>4× rate required for broad spectrum weed control)) is recorded as “little crop injury”. In data set [1], the “agronomic performance of cotton event after herbicide application vs unsprayed plants” value is listed as “not altered”. Besides, the “result of treatment of non-transformed cotton” value in the data set with non-transformed cotton was “plant death”.
In the case of `Nc1c(Cl)c(F)nc(OCC(=O)O)c1Cl` [Fluroxypyr, fluroxypyr], the “level of herbicide to which tolerance is provided” value in data set [4] (in vivo) is on record as “up to 280 g ae/ha”.
With `O=C(O)COc1nc(Cl)c(Cl)cc1Cl` [Triclopyr, triclopyr], the “% Injury” value in data set [5] (140 g ae/ha, 3 DAA) is on record as 33.8 a %; in data set [5] (140 g ae/ha, 11 DAA), 36.3 b %; in data set [5] (280 g ae/ha, 3 DAA), 33.8 a %; in data set [5] (280 g ae/ha, 11 DAA), 40.0 ab %; in data set [5] (560 g ae/ha, 3 DAA), 36.3 a %; in data set [5] (560 g ae/ha, 11 DAA), 48.8 a %. In addition, the “% Injury” value is recorded as 11.8 b % in data set [4] (140 g ae/ha, 3 DAA, greenhouse); 3.0 a % in data set [4] (140 g ae/ha, 11 DAA, greenhouse); 17.0 a % in data set [4] (280 g ae/ha, 3 DAA, greenhouse); 6.3 a % in data set [4] (280 g ae/ha, 11 DAA, greenhouse); 19.3 a % in data set [4] (560 g ae/ha, 3 DAA, greenhouse); 3.5 a % in data set [4] (560 g ae/ha, 11 DAA, greenhouse). The “tolerance of the plants” value in data set [4] (3 DAA, greenhouse) was “moderate levels of tolerance”. In data set [4] (by 11 DAA, recovered from the initial epinastic response, greenhouse), the “tolerance of the plants compared to the non-transformed control” value is given as “robust tolerance”.
